From the NIST ThermoML archive (doi:10.1016/j.fluid.2014.01.013)
Numbers after ± are expanded uncertainties.

Settings: 298.15 K; 101.33 kPa; Liquid; Vibrating tube method

Structure (SMILES)	mass density
O=Cc1ccccc1 [benzaldehyde]	1042.94 ± 0.26 kg/m3
CCCCCCCCCC [decane]	726.43 ± 0.25 kg/m3
CCCCCCCCCCCC [dodecane]	741.54 ± 0.58 kg/m3

Next, values leading:

mass density	Structure (SMILES)
770.21 ± 0.24 kg/m3	CCCCCCCCCCCCCCCC [hexadecane]
759.27 ± 0.24 kg/m3	CCCCCCCCCCCCCC [tetradecane]
